Tested on: not given
Assay: not given
Settings: not given

Row | melting point | Structure (SMILES)
1 | 86.5 to 88.2 °C | C=C(C)c1nn(-c2c(Cl)cc(C(F)(F)F)cc2Cl)cc1C1CC1(Br)Br (stereo not shown) [Example 1, 4-(2,2-Dibromocyclopropyl)-1-(2,6-dichloro-4-trifluoromethylphenyl)-3-(propen-2-yl)pyrazole]
2 | 106 to 107 °C | FC(F)(F)c1cc(Cl)c(-n2cc(C3CC3(Br)Br)c(C=C(Br)Br)n2)c(Cl)c1 (stereo not shown) [Example 6, 4-(2,2-Dibromocyclopropyl)-3-(2,2-dibromoethenyl)-1-(2,6-dichloro-4-trifluoromethylphenyl)pyrazole]
3 | 186.2 to 187.3 °C | NC(=O)c1nn(-c2c(Cl)cc(C(F)(F)F)cc2Cl)cc1C1CC1(Br)Br (stereo not shown) [Example 7, 3-Carbamoyl-4-(2,2-dibromocyclopropyl)-1-(2,6-dichloro-4-trifluoromethylphenyl)pyrazole]
4 | 124.9 to 126 °C | Nc1nn(-c2c(Cl)cc(C(F)(F)F)cc2Cl)cc1C1CC1(Br)Br (stereo not shown) [Example 8, 3-Amino-4-(2,2-dibromocyclopropyl)-1-(2,6-dichloro-4-trifluoromethylphenyl)pyrazole]

Tested on: adult Stomoxys calcitrans
Assay: Test for insecticidal activity: topical application to adult flies, mortality at 24 hours
Type: in vivo
Settings: acetone solution (1 μl) applied to thorax, mortality assessed 24 hours after dosing
Description: Test for Insecticidal Activity Adult flies (Stomoxys calcitrans) are collected and anaesthetized using CO2. An acetone solution (1 μl) containing the test compound is applied directly to the thorax of each fly and then the flies are placed carefully into a 50 ml tube covered with damp gauze to recover from the CO2. Negative controls have acetone (1 μl) dispensed onto them. Mortality is assessed 24 hours after dosing. Table 1 illustrates the in vivo activity of a selection of the compounds of the invention against adult Stomoxys calcitrans. Dosages required to produce 100% mortality are given in the final column as μg/fly.

Row | Structure (SMILES) | Dosage required to produce 100% mortality
5 | C=Cc1nn(-c2c(Cl)cc(C(F)(F)F)cc2Cl)cc1C1CC1(Br)Br (stereo not shown) [Example 4, 4-(2,2-Dibromocyclopropyl)-1-(2,6-dichloro-4-trifluoromethylphenyl)-3-ethenylpyrazole] | 0.10 μG/FLY
6 | FC(F)=Cc1nn(-c2c(Cl)cc(C(F)(F)F)cc2Cl)cc1C1CC1(Br)Br (stereo not shown) [Example 5, 4-(2,2-Dibromocyclopropyl)-1-(2,6-dichloro-4-trifluoromethylphenyl)-3-(2,2-difluoroethenyl)pyrazole] | 0.10 μG/FLY
7 | FC(F)(F)c1cc(Cl)c(-n2cc(C3CC3(Br)Br)cn2)c(Cl)c1 (stereo not shown) [Example 9, 4-(2,2-Dibromocyclopropyl)-1-(2,6-dichloro-4-trifluoromethylphenyl)pyrazole] | 0.05 μG/FLY
8 | FC(F)(F)c1cc(Cl)c(-n2cc(C3CC3(Br)Br)c(Br)n2)c(Cl)c1 (stereo not shown) [Example 11, 3-Bromo4-(2,2-dibromocyclopropyl)-1-(2,6-dichloro-4-trifluoromethylphenyl)pyrazole] | 0.05 μG/FLY

Tested on: Boophilus microplus larvae
Assay: Test for acaricidal activity: treated filter paper envelope, larval mortality
Settings: larvae in treated filter paper envelope; 25° C.; mortality assessed after 48 hours
Description: Test for Acaricidal Activity
A dose of 10 μg/cm^2 is created by evenly pipetting 0.5 ml of a 1 mg/ml solution of the test compound in a suitable solvent such as acetone or ethanol onto a Whatman No. 1 (Trade Mark) filter paper cut to a size of 8×6.25 cm. When dry, the paper is folded in half, sealed on two sides using a crimping device and placed in a Kilner jar containing a cotton wool pad dampened with water. The jar is then sealed and placed at 25° C. for 24 hours. Next, approximately 50 Boophilus microplus larvae are introduced into the treated paper envelope which is then crimped along the third side to effect a complete seal. The paper envelope is returned to the Kilner jar, which is sealed and placed at 25° C. for a further 48 hours. The papers are then removed and mortality assessed. Negative controls are provided by treating an appropriately cut filter paper with 0.5 ml of solvent only and following the same procedure. Activity at other doses is obtained by varying the concentration of the test solution.
Table 2 illustrates the in vitro activity of a selection of the compounds of the invention against Boophilus microplus larvae. Dosages required to produce 100% mortality are given in the final column as μg/cm^2.

Row | Structure (SMILES) | Dosage required to produce 100% mortality
9 | FC(F)(F)c1cc(Cl)c(-n2cc(C3CC3(Br)Br)c(Cl)n2)c(Cl)c1 (stereo not shown) [Example 10, 3-Chloro-4-(2,2-dibromocyclopropyl)-1-(2,6-dichloro-4-trifluoromethylphenyl)pyrazole] | 1.00 μg/cm^2
10 | FC(F)(F)c1cc(Cl)c(-n2cc(C3CC3(Br)Br)c(Br)n2)c(Cl)c1 (stereo not shown) [Example 11, 3-Bromo4-(2,2-dibromocyclopropyl)-1-(2,6-dichloro-4-trifluoromethylphenyl)pyrazole] | 1.00 μg/cm^2

— patent US20020173662A1, “Parasiticidal pyrazoles” (priority 1998, published 2002)
